Test results taken from ChEMBL document CHEMBL1201862, “PubChem BioAssay data set” (2004).
The source made the active and inactive calls.

What was measured:
CHO-K1 = test: (§1) Counterscreen for antagonists of the orexin 1 receptor (OX1R; HCRTR1): Homogeneous time resolved fluorescence (HTRF)-based cell-based dose response assay to identify antagonists of the parental CHO-K1 cell line. [Related pubchem assays (depositor defined):AID434989, AID435008, AID463079, AID485270, AID492963, AID492964, AID492965, AID493232, AID504699, AID504701]; assay type: functional; conditions: Cricetulus griseus
[1] = as §1, with “Fluorescence-based” for “Homogeneous time resolved fluorescence (HTRF)-based”, “cell-based high throughput” for “cell-based”, “CHO” for “CHO-K1”; assay type: functional
[2] = molecular target: T1, Orexin/Hypocretin receptor type 1 (Homo sapiens, UniProt O43613); test: (§2) Fluorescence-based cell-based high throughput dose response assay for antagonists of the orexin 1 receptor (OX1R; HCRTR1). [Related pubchem assays (depositor defined):AID434989, AID435008, AID463079, AID485270, AID492963, AID492964, AID492965, AID493232, AID504717, AID504718]; assay type: functional
T1 sequence (O43613 whole entry): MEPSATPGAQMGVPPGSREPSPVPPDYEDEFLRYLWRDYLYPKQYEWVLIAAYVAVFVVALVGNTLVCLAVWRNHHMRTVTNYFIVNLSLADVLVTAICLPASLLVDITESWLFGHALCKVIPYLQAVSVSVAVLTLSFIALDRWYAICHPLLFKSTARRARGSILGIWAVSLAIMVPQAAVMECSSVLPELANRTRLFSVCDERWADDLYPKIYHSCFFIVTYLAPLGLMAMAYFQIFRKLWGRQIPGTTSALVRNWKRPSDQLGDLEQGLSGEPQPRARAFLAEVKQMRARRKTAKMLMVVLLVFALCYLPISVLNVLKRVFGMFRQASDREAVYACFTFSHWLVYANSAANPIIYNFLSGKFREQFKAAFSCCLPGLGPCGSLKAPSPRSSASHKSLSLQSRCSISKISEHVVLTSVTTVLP

[3] = molecular target: T1, Orexin/Hypocretin receptor type 1; test: as §2, with “Homogeneous Time Resolved Fluorescence (HTRF)-based” for “Fluorescence-based”; assay type: functional
Estrogen receptor = molecular target: T2, Estrogen receptor (Homo sapiens, UniProt P03372);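 note: potency for inhibiting coactivator peptide recruitment to the receptor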
T2 sequence (P03372 whole entry): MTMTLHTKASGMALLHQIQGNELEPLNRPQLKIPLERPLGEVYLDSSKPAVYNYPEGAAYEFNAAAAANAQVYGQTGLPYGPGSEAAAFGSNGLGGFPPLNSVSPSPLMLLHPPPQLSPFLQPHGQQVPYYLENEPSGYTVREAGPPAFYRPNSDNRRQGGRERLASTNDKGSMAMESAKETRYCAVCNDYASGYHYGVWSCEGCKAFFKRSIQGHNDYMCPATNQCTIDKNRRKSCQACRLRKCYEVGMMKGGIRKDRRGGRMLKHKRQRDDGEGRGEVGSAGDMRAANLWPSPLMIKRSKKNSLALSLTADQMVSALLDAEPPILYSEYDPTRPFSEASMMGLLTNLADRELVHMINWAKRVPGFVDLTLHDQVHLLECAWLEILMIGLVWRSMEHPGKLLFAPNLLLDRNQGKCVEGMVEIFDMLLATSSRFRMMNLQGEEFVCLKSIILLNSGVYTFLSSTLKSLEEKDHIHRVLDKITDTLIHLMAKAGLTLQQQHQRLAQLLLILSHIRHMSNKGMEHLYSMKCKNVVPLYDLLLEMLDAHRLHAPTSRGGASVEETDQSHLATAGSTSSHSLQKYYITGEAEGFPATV

Orexin receptor type 2 [4] = molecular target: T3, Orexin receptor type 2 (Homo sapiens, UniProt O43614); test: Counterscreen assay for antagonists of the orexin 1 receptor (OX1R; HCRTR1): Fluorescence-based cell-based dose response assay for antagonists of the orexin 2 receptor (OX2R; HCRTR2), run by assay provider.; assay type: functional
T3 sequence (O43614 whole entry): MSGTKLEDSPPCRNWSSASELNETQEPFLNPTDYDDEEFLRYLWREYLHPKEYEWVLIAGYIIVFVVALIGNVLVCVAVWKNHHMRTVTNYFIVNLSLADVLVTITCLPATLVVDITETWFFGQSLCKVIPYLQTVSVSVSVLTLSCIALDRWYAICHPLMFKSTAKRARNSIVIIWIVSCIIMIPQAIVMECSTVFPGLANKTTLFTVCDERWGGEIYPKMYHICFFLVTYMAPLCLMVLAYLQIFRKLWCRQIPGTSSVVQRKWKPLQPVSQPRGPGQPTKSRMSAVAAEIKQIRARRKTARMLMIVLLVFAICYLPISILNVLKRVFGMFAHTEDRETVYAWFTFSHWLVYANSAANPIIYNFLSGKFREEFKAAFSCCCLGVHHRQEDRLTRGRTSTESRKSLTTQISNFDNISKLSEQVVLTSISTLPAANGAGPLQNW

Orexin receptor type 2 [5] = molecular target: T3, Orexin receptor type 2; test: Counterscreen assay for antagonists of the orexin 1 receptor (OX1R; HCRTR1): Homogeneous Time Resolved Fluorescence (HTRF)-based cell-based dose response assay for antagonists of the orexin 2 receptor (OX2R; HCRTR2), run by assay provider.; assay type: functional
[6] = molecular target: Heat shock protein HSP 90-alpha (Homo sapiens, UniProt P07900); assay type: functional, organism-based
[7] = Luminescence Cell-Based Dose Response HTS to Identify Activators of Luciferase Translation or Activity in H4 […] Cells. [Related pubchem assays: 1829 (Project Summary), 1814 (Primary HTS)]; assay type: functional
H4 = test: Luminescence Cell-Based Dose Response HTS to Identify Activators of 5'UTR Stem-Loop Driven Prion Protein mRNA Translation in H4 Neuroglioblastoma Cells. [Related pubchem assays: 1829 (Project Summary), 1814 (Primary HTS)]; assay type: functional; conditions: Homo sapiens
[8] = Luminescence Cell-Based Dose Confirmation HTS to Identify Activators of 5'UTR Stem-Loop Driven Alpha-Synuclein mRNA Translation in H4 Neuroglioblastoma Cells. [Related pubchem assays: 1829 (Project Summary), 1814 (Primary HTS)]; assay type: functional
Mu-type opioid receptor = Mu-type opioid receptor (Homo sapiens, UniProt P35372); test: (§3) Counterscreen for agonists of heterodimerization of the mu 1 (OPRM1) and delta 1 (OPRD1) opioid receptors: Luminescence-based cell-based high throughput dose response assay to identify agonists of OPRM1 homodimerization.; assay type: functional
[9] = molecular target: T4, Short transient receptor potential channel 4 (Mus musculus, UniProt Q9QUQ5); test: calcium entry via TRPC4 opening agents – cell-based, HEK293 TRPC4/mu-opioid, Fluo-4 calcium, dose response (AID 434937); assay type: functional
T4 sequence (Q9QUQ5 whole entry): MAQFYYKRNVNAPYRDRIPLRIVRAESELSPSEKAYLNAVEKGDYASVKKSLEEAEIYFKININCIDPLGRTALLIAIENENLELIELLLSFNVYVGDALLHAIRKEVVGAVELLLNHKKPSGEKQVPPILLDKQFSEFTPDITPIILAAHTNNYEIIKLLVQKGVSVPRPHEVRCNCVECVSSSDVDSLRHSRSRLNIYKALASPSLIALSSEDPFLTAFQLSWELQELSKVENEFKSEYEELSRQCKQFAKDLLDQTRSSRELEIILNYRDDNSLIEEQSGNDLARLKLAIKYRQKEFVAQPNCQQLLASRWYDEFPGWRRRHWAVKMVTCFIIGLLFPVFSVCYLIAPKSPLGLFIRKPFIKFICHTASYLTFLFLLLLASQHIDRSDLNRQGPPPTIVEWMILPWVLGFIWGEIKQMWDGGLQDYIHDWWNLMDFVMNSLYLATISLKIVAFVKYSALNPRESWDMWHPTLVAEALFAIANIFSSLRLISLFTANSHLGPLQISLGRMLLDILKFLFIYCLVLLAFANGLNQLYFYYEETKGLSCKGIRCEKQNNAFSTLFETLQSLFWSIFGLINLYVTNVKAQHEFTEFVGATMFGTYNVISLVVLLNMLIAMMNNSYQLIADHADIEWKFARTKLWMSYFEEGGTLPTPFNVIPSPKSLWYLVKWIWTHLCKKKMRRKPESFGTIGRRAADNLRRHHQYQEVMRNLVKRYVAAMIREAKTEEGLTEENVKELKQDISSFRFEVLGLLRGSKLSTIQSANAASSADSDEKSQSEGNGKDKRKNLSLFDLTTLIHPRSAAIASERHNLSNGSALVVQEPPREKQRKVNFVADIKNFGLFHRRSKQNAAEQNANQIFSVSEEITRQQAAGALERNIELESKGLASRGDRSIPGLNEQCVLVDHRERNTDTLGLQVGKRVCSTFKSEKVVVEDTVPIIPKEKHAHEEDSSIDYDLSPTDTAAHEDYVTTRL

[10] = molecular target: 5-hydroxytryptamine receptor 5A (Homo sapiens, UniProt P47898); test: Counterscreen for agonists of OPRM1-OPRD1 heterodimerization: luminescence-based cell-based high throughput dose response assay to identify agonists of 5-hydroxytryptamine (serotonin) 5A receptor (HTR5A). [Related pubchem assays (depositor defined):AID504326, AID504355, AID504692, AID504904, AID504905]; assay type: functional
[11] = molecular target: Delta-type opioid receptor (Homo sapiens, UniProt P41143); test: as §3, with “of OPRD1” for “of OPRM1”, “homodimerization. [Related pubchem assays (depositor defined):AID504326, AID504355, AID504692, AID504904, AID504905]” for “homodimerization.”; assay type: functional
[12] = molecular target: T5, DNA repair and recombination protein RAD54-like (Homo sapiens, UniProt Q92698); test: RAD54 Holliday junction migration blockers – biochemical, fluorescence, cherry-picked samples, dose series, confirmation (AID 651657); assay type: functional
T5 sequence (Q92698 whole entry): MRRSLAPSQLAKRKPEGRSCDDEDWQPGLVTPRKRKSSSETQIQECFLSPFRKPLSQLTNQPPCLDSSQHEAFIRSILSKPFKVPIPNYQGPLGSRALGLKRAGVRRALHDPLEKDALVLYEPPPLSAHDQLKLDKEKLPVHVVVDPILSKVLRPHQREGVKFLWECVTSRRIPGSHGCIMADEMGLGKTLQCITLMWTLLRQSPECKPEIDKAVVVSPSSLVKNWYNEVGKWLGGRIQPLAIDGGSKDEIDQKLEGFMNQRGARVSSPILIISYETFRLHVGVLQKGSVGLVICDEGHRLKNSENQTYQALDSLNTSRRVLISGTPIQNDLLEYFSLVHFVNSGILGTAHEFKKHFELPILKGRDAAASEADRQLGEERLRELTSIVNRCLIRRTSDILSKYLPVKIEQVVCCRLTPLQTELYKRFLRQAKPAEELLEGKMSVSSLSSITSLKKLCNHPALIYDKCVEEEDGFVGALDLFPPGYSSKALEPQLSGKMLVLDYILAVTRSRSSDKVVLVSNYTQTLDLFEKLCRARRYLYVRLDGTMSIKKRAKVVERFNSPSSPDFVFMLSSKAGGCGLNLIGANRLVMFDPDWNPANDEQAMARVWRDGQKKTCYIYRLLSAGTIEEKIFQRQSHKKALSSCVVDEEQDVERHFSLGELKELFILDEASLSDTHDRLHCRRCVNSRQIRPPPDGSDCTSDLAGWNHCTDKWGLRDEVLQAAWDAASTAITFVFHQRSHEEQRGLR

[13] = molecular target: T6, DNA repair protein RAD52 homolog (Homo sapiens, UniProt P43351); assay type: functional, biochemical
T6 sequence (P43351 whole entry): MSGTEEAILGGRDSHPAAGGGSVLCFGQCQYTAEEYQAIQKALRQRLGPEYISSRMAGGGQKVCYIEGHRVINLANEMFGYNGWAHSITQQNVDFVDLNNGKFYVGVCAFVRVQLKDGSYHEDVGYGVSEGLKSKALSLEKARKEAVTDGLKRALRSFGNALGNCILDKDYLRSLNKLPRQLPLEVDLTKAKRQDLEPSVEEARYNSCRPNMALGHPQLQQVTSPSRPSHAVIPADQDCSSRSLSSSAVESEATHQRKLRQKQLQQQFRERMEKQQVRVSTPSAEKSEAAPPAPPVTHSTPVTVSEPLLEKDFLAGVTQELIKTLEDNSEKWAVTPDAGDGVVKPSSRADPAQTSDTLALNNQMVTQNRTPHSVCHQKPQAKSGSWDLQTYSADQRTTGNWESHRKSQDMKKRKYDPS

Sequence of Delta-type opioid receptor (P41143 whole entry): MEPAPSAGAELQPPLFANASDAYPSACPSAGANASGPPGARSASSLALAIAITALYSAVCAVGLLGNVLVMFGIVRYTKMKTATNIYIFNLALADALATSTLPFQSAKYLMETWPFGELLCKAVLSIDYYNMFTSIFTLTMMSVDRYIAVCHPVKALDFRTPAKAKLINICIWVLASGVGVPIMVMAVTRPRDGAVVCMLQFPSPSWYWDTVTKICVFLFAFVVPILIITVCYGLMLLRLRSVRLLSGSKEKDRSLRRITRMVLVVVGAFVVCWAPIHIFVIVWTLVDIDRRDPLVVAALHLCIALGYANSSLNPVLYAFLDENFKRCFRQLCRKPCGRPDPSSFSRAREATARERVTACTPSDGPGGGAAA
Sequence of 5-hydroxytryptamine receptor 5A (P47898 whole entry): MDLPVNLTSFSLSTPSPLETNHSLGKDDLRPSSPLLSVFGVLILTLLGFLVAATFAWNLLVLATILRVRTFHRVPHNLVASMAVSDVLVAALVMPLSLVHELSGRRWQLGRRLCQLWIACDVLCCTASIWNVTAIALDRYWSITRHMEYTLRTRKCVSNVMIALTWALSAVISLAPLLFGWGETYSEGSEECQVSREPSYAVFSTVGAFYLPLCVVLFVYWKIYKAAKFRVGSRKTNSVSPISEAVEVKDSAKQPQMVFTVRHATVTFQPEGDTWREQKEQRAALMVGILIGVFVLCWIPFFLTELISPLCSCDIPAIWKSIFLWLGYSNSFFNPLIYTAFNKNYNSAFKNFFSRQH
Sequence of Mu-type opioid receptor (P35372 whole entry): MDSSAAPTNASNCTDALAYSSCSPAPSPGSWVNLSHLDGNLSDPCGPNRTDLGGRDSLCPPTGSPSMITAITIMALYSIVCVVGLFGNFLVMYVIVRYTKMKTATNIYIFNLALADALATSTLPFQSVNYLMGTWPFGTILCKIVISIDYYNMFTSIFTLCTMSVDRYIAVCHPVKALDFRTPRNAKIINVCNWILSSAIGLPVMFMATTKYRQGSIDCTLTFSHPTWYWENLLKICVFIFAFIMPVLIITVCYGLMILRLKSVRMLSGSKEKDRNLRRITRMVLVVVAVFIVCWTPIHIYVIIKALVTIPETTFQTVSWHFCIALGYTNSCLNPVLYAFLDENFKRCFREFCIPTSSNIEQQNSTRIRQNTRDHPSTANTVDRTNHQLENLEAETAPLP

CCn1c(SCC(=O)Nc2ccc3c(c2)c2ccccc2n3CC)nnc1-c1cnccn1
IC50 (CHO-K1): > 66.3 µM (inactive)
IC50 [1]: > 49.8 µM (inactive)
IC50 [2]: 2.18 µM (active)
IC50 [3]: 0.0548 µM (active)
IC50 (Estrogen receptor): > 50 µM (not active)
IC50 (Orexin receptor type 2 [4]): 38.9 µM (inactive)
IC50 (Orexin receptor type 2 [5]): 23.1 µM (inactive)

COc1ccccc1OCCNC(=O)c1ccc(Br)cc1
AC50 [6]: 10.8 µM (active)

N#CC(=C1SC=CS1)c1nc(-c2ccccc2)cs1
EC50 [7]: 53.4 µM (active)
IC50 (CHO-K1): > 66.2 µM (inactive)
IC50 [1]: > 49.7 µM (inactive)
IC50 [2]: 1.02 µM (active)
EC50 (H4): > 120 µM (not active)
IC50 [3]: 0.749 µM (active)
EC50 [8]: 0.204 µM (active)
IC50 (Orexin receptor type 2 [4]): 6.66 µM (active)
IC50 (Orexin receptor type 2 [5]): 4.31 µM (active)

CCn1cc(CNCc2cn(-c3ccccc3C)nc2-c2ccc(OC)c(F)c2)cn1
EC50 (Mu-type opioid receptor): 18.9 µM (inactive)
EC50 [9]: 1.33 µM (active)
EC50 [10]: > 92.5 µM (inactive)
EC50 [11]: 34.7 µM (inactive)

COC(=O)c1c(NC(=O)c2ccc(S(=O)(=O)N3CCOCC3)cc2)sc2c1CCN(C(C)C)C2
AC50 [12]: 14.7 µM (active)

CCOC(=O)C1(CCCc2ccccc2)CCN(Cc2cnn(C)c2)CC1
EC50 (Mu-type opioid receptor): 43 µM (inactive)
EC50 [9]: 0.596 µM (active)
EC50 [10]: > 92.5 µM (inactive)
EC50 [11]: > 92.5 µM (inactive)

CC(=O)Nc1cc(-c2cccc(C(=O)NCCN(C)C)c2)cn2c(-c3ccccc3)cnc12
AC50 [13]: 4.01 µM (active)
AC50 [12]: 33.5 µM (active)
